# Reference: patent US20100068302A1, “METHODS AND COMPOSITIONS FOR THE TREATMENT OF CANCER” (TRASLATIONAL CANCER DRUGS PHARMA, S.L., priority 2008, published 2010)
# Where “and” joins values, the source holds several entries; their conditions need not be identical. Equal entries are not always repeated. Where two headings read alike, the source gives them in different places.
# Key:
# [1] = tested on: primary cultures of resected NSCLC tumours; assay: Primary cultures of NSCLC tumours treated 10 days, Cristal Violet quantification; assay type: cell-based, human; details: for RESISTANT (% of samples) / RESISTANT (number of tumour samples) / SENSITIVES (% of samples) / SENSITIVES (number of tumour samples): primary NSCLC tumour cultures, 0-20 μM, 10 days
# From the text: Specimens of lung cancer tissue from 84 randomly selected patients who underwent surgical resection of NSCLC between 2001 and 2004 and that were followed up by The Medical Oncology division at La Paz Hospital in Madrid were used for this analysis. No adjuvant therapy was administrated to these patients. The study was approved by the institutional review board of the hospitals, and written informed consent was obtained from all patients.
# Resected tissues from NSCLC patients were dissociated (Cell dissociation sieve-tissued grinder Kit CD1, SIGMA), and the obtained cells were seeded in 24 well plates (BD, Falcon, Bioscience, San Jose, Calif., USA). […] The final persistent population in each well was quantified by the method of Cristal Violet as previously described (Rodríguez-González, A. et al., Oncogene, 22:8803-8812). […]
# [2] = tested on: H460 non-small lung cancer cells; assay: Cell proliferation assay (MTT), H460; assay type: cell-based, human
# H460 RSM-932AR cells = assay: Cell proliferation assay (MTT), H460 line resistant to RSM-932A; assay type: cell-based, human
# Method: (§1) Cell lines resistant to MN58b and RSM-932A (identified as MN58R and RSM-932A-R, respectively) were generated by prolonged continuous exposure to increasing concentrations of each drug. A parallel control (H460 stock) of the cell line in the absence of the compounds was kept in culture for the same time.
# (§2) Cells were seeded on 96-well plates (B D, Falcon, Bioscience, San Jose, Calif., USA) at a density of 6000 cells/well, and incubated for 24 h under standard conditions. Then, cells were treated with different concentrations of the ChoK inhibitors (quadruplicates of each concentration) and maintained for 72 hours. […] Absorbance is read at 595 nm in a VersaMax Microplate Reader (Molecular Devices, Sunnyvale, Calif., USA). For sensitization with acid ceramidase inhibitor, cells were pre-treated 4 hours with the correspondent IC50 for NOE before treatment with ChoK inhibitors. NOE (N-Oleoyl ethanolamine) was obtained from Calbiochem (La Jolla, Calif., USA).
# (§3) To further study the mechanism underlying resistance to ChoK inhibition, as well as the implication of acid ceramidase in this effect, we used the human NSCLC-derived H460 cell line for a set of in vitro experiments. […]
# H460 MN58R cells = assay: Cell proliferation assay (MTT), H460 line resistant to MN58b; assay type: cell-based, human
# Method: as §1, §2, §3
# H460stock cells = assay: Cell proliferation assay (MTT), H460stock control line; assay type: cell-based, human
# Method: as §1, §2, §3
# [3] = tested on: H1299 non-small lung cancer cells; assay: Cell proliferation assay (MTT), H1299; assay type: cell-based; details: Homo sapiens
# Method: (§4) All cell lines used in this study were maintained under standard conditions of temperature (37° C.), humidity (95%), and carbon dioxide (5%). Human primary bronchial epithelial cells, NHBE (BEC) (Cambrex, CC-2541) were grown in BEGM (Bronchial Epithelial cell growth media) BulletKit (Cambrex, CC-3170). Human primary mammary epithelial cells, HMEC (Clonetics, CC-2551) were grown in MEBM medium supplemented with a bullet kit (Clonetics, CC-3150). Epithelial non-small lung cancer cells H460 and H1299, and small cell lung cancer cell lines H510 and H82 were maintained in RPMI supplemented with 10% Fetal Bovine Serum (FBS) (Life Technologies, Grand Island, N.Y.).
# as §2, with “conditions.” for “conditions. Then, cells were treated with different concentrations of the ChoK inhibitors (quadruplicates of each concentration) and maintained for 72 hours.”
# [4] = tested on: H82 small cell lung cancer cells; assay: Cell proliferation assay (MTT), H82; assay type: cell-based; details: Homo sapiens
# Method: as §4
# as §2, with “conditions.” for “conditions. Then, cells were treated with different concentrations of the ChoK inhibitors (quadruplicates of each concentration) and maintained for 72 hours.”
# H460 cells = assay: Combination index assay (Chou Talalay) cisplatin plus ChoK inhibitors; assay type: cell-based, human; details: cisplatin 3 h followed by 40 h of ChoK inhibitor, CI<1 synergistic, CIs<0.5 strong synergistic
# Method: All experiments were performed in quadruplicate.
# [5] = tested on: Human primary bronchial epithelial cells, NHBE (BEC); assay: Cell proliferation assay (MTT), Primary BEC; assay type: cell-based
# Method: as §4
# as §2, with “conditions.” for “conditions. Then, cells were treated with different concentrations of the ChoK inhibitors (quadruplicates of each concentration) and maintained for 72 hours.”
# [6] = tested on: H510 small cell lung cancer cells; assay: Cell proliferation assay (MTT), H510; assay type: cell-based; details: Homo sapiens
# Method: as §4
# as §2, with “conditions.” for “conditions. Then, cells were treated with different concentrations of the ChoK inhibitors (quadruplicates of each concentration) and maintained for 72 hours.”
# [7] = tested on: Human primary mammary epithelial cells, HMEC; assay: Cell proliferation assay (MTT), Primary HMEC; assay type: cell-based
# Method: as §4
# as §2, with “conditions.” for “conditions. Then, cells were treated with different concentrations of the ChoK inhibitors (quadruplicates of each concentration) and maintained for 72 hours.”
# [8] = tested on: SW620 colon cancer derived cells; assay: MTT cytotoxicity, ChoKI and TRAIL, SW620; details: SW620 (FIG. 7B)
# From the text: (§5) To that end, five colon cancer derived cell lines were used: DLD-1, HT-29, HCT-116, SW620 and SW480.
# [9] = tested on: DLD-1 colon cancer derived cells; assay: MTT cytotoxicity, ChoKI and TRAIL, DLD-1; details: DLD-1, drug alone
# From the text: as §5
# [10] = tested on: DLD-1, HT-29, HCT-116, SW620 and SW480; assay: MTT sensitivity in five colon cancer derived cell lines; assay type: cell-based; details: five colon cancer derived cell lines (FIG. 7)
# From the text: as §5
# [11] = tested on: HT-29 colon cancer derived cells; assay: MTT cytotoxicity, ChoKI and TRAIL, HT-29; details: HT-29, drug alone
# From the text: as §5
# [12] = Homo sapiens, NCI-H460, 72 h, H460, single agent (Table 7), read-out: IC50 72 h
# [13] = of 84 patients, nearly 100% of cells alive at 20 μM at day 10
# [14] = Homo sapiens, NCI-H460, read-out: IC50
compound,measurement,setting,value
CC(=O)O[C@H]1C(=O)[C@@]2(C)[C@H]([C@H](OC(=O)c3ccccc3)[C@]3(O)C[C@H](OC(=O)[C@H](O)[C@@H](NC(=O)c4ccccc4)c4ccccc4)C(C)=C1C3(C)C)[C@]1(OC(C)=O)CO[C@@H]1C[C@@H]2O [Taxol],RESISTANT (% of samples),[1],56.5%
same,RESISTANT (number of tumour samples),[1],35
same,SENSITIVES (% of samples),[1],43.5%
same,SENSITIVES (number of tumour samples),[1],27
"CCCCCCCC/C=C\CCCCCCCC(=O)NCCO [NOE, N-oleoylethanolamine, reference compound]",IC50,[2]; [12],32500 nM
"[NH2][Pt]([NH2])([Cl])[Cl] [cDDP, cisplatin, reference compound]",RESISTANT (% of samples),[1],50%
same,RESISTANT (number of tumour samples),[1],31
same,SENSITIVES (% of samples),[1],50%
same,SENSITIVES (number of tumour samples),[1],31
same,IC50,[2]; H460,5 µg/mL
same,IC50,H460 RSM-932AR cells,1.5 µg/mL
same,IC50,H460 MN58R cells,2 µg/mL
same,IC50,H460stock cells,4.5 µg/mL
Nc1ccn([C@@H]2O[C@H](CO)[C@@H](O)C2(F)F)c(=O)n1 [Gemcitabine],RESISTANT (% of samples),[1],65.4%
same,RESISTANT (number of tumour samples),[1],34
same,SENSITIVES (% of samples),[1],34.6%
same,SENSITIVES (number of tumour samples),[1],18
"CCC1=C[C@@H]2CN(C1)Cc1c([nH]c3ccccc13)[C@@](C(=O)OC)(c1cc3c(cc1OC)N(C)[C@H]1[C@@](O)(C(=O)OC)[C@H](OC(C)=O)[C@]4(CC)C=CCN5CC[C@]31[C@@H]54)C2 [Vinolrelbine, vinorelbine]",RESISTANT (% of samples),[1],61.5%
same,RESISTANT (number of tumour samples),[1],24
same,SENSITIVES (% of samples),[1],38.5%
same,SENSITIVES (number of tumour samples),[1],15
"CN(C)c1cc[n+](Cc2ccc(CCCCc3ccc(C[n+]4ccc(N(C)C)cc4)cc3)cc2)cc1 [MN58b, 1,4-(4-4′-Bis-((4-(dimethylamine)pyridinium-1-yl)methyl)diphenyl)butane dibromide]",IC50,"[3]; NCI-H1299, 48 h, read-out: IC50 48 h",10300 ± 2500 nM
same,IC50,"[3]; NCI-H1299, 72 h, read-out: IC50 72 h",2700 ± 700 nM
same,IC50,"[3]; NCI-H1299, 144 h, read-out: IC50 144 h",900 ± 100 nM
same,IC50,"[4]; H82, 48 h, read-out: IC50 48 h",1900 ± 200 nM
same,IC50,"[4]; H82, 72 h, read-out: IC50 72 h",800 ± 40 nM
same,IC50,"[4]; H82, 144 h, read-out: IC50 144 h",270 ± 10 nM
same,samples highly sensitive (%),[1]; among the 45 sensitive tumours,33.3%
same,samples partially sensitive (%),[1]; among the 45 sensitive tumours,66.7%
same,samples partially sensitive (number),"[1]; among the 45 sensitive tumours, around 50% of cells alive at end of treatment",30
same,samples highly sensitive (number),"[1]; among the 45 sensitive tumours, viability abolished at low concentrations, day 10",15
same,tumours sensitive to the antiproliferative effect (%),"[1]; of 84 patients, day 10",53.6%
same,tumours sensitive to the antiproliferative effect (number),"[1]; of 84 patients, day 10",45
same,samples fully resistant (%),[1]; [13],"46,4%"
same,samples fully resistant (number),[1]; [13],39
same,RESISTANT (% of samples),[1],44.4%
same,RESISTANT (number of tumour samples),[1],28
same,SENSITIVES (% of samples),[1],55.5% and 55%
same,SENSITIVES (number of tumour samples),[1],35
same,Combination index (CI) with cisplatin,H460 cells,0.1
same,IC50,"[2]; Homo sapiens, NCI-H460, 48 h, H460, 48 h, read-out: IC50 48 h",7030 ± 2030 nM
same,IC50,"[2]; Homo sapiens, NCI-H460, 72 h, H460, 72 h (Table 6), read-out: IC50 72 h",2600 ± 800 nM
same,IC50,[2]; [12],280 nM
same,IC50,"[2]; Homo sapiens, NCI-H460, 144 h, H460, 144 h, read-out: IC50 144 h",1100 ± 100 nM
same,IC50,"[2]; Homo sapiens, NCI-H460, H460 (Table 8), read-out: IC50",280 nM
same,IC50,"[5]; 48 h, read-out: IC50 48 h",40500 ± 6200 nM
same,IC50,"[5]; 72 h, read-out: IC50 72 h",18300 ± 4800 nM
same,IC50,"[5]; 144 h, read-out: IC50 144 h",4200 ± 800 nM
same,IC50,H460 RSM-932AR cells; [14],28800 nM
same,IC50,H460 MN58R cells; [14],19200 nM
same,IC50,"[6]; NCI-H510, 48 h, read-out: IC50 48 h",1100 ± 100 nM
same,IC50,"[6]; NCI-H510, 72 h, read-out: IC50 72 h",400 ± 50 nM
same,IC50,"[6]; NCI-H510, 144 h, read-out: IC50 144 h",100 ± 30 nM
same,IC50,"[7]; 48 h, read-out: IC50 48 h",44700 ± 4950 nM
same,IC50,"[7]; 72 h, read-out: IC50 72 h",20900 ± 2700 nM
same,IC50,"[7]; 144 h, read-out: IC50 144 h",3400 ± 130 nM
same,IC50,"H460stock cells; Homo sapiens, read-out: IC50",390 nM
TRAIL: extracellular domain of human TRAIL (amino acids 95-281),sensitivity to treatment,[8],nearly resistant
same,"cytotoxicity, percentage of cell death",[9],12%
same,sensitivity across the cell lines,[10],very similar for all cell lines except for SW620
same,cytotoxicity,[11],18%
